Measurements published in ChEMBL document CHEMBL1137513, “Synthesis and biological activities of quinazoline derivatives with ortho-phenol-quaternary ammonium salt groups” (Bioorg Med Chem, 2007).
Calls of active or inactive are those of the source. The rule behind the calls is not given here.

Key:
Escherichia phage T7 [1] = experiment: Inhibition of T7 RNA polymerase transcription at 10 uM after irradiation; type: functional
DNA = experiment: Binding affinity to calf thymus DNA at 2 uM by thermal denaturation study; type: nucleic-acid assay; conditions: Bos taurus
Escherichia phage T7 [2] = experiment: Inhibition of T7 RNA polymerase transcription at 5 uM after irradiation; type: functional
Escherichia coli [3] = experiment: Induction of pBR322 DNA interstand cross link at 1 uM by agarose gel electrophoresis assay
Escherichia coli [4] = experiment: Induction of pBR322 DNA interstand cross link at 5 uM by agarose gel electrophoresis assay
Escherichia coli [5] = experiment: Induction of pBR322 DNA interstand cross link at pH 7.7 by agarose gel electrophoresis assay
Escherichia coli [6] = experiment: Induction of pBR322 DNA interstand cross link at 100 uM by agarose gel electrophoresis assay
Escherichia phage T7 [7] = experiment: Inhibition of T7 RNA polymerase transcription at 20 uM after irradiation; type: functional

Activity (Escherichia phage T7 [1]) | ΔTm (DNA) [°C] | Activity (Escherichia phage T7 [2]) | Activity (Escherichia coli [3]) [%] | Activity (Escherichia coli [4]) [%] | Activity (Escherichia coli [5]) | Activity (Escherichia coli [6]) | Activity (Escherichia phage T7 [7]) | Compound
Active | 7.4 | Active |  |  |  |  |  | COc1cc2nc(Nc3ccc(O)c(C[N+](C)(C)C)c3)nc(N)c2cc1OC
Active | 8.6 | Active | 28 | 46 | Active | Active |  | COc1cc2nc(Nc3ccc(O)c(C[N+](C)(C)C)c3)nc(Nc3ccc(O)c(C[N+](C)(C)C)c3)c2cc1OC
Active | 5.8 | Active |  |  |  |  |  | COc1cc2nc(Cl)nc(Nc3ccc(O)c(C[N+](C)(C)C)c3)c2cc1OC
 | 0.5 |  |  |  |  | inactive | inactive | C[N+](C)(C)Cc1cc(CCC(=O)NCCNC(=O)CCc2ccc(O)c(C[N+](C)(C)C)c2)ccc1O
